Test results reported in patent US9079866B2, “Flap modulators” (JANSSEN PHARMACEUTICA NV, priority 2013, dated 2015).
Where two headings read alike, the source gives them in different places.

How the values were obtained:
human FLAP = human FLAP (Homo sapiens (Human), UniProt P20292); assay: FLAP binding assay (HTRF format); settings: human FLAP wild type, HTRF format; average of two plates, duplicates
Procedure, shortened: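 Reported data take the mean of two different plates carrying duplicate samples and use the HTRF ratio as the measured signal.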

[1] = tested on: leukotriene pathway in human whole blood (LTB4 levels); assay: Human whole blood assay (A23187-stimulated LTB4); format: cell-based; settings: human whole blood diluted 1:1 in RPMI, A23187-stimulated LTB4, read-out: LTB4 IC50 1:1
Procedure, shortened: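 Heparinised human whole blood diluted 1:1 in RPMI, pre-incubated 15 min at 37° Celsius with compound, then stimulated with A23187 (7 μg/mL) for 30 min at 37° Celsius. Plasma LTB4 measured by immunoassay kit; IC50 from 4-parameter fit; single replicate per plate, at least one healthy donor.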

human FLAP, sequence (P20292 whole entry): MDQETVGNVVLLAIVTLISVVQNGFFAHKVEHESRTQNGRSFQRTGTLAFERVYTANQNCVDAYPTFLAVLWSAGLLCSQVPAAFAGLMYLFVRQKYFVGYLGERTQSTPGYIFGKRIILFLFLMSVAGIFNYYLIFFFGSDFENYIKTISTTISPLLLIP

Row | Compound | Ki (human FLAP) [nM] | IC50 ([1]; Homo sapiens) [nM] | IC50 [1] [nM]
1 | Nc1cnc(-c2ccc(-c3ccccc3S(=O)(=O)N[C@H](CO)Cc3ccccc3)cc2F)cn1 [Example 116, (S)-4′-(5-Aminopyrazin-2-yl)-3′-fluoro-N-(1-hydroxy-3-phenylpropan-2-yl)-[1,1′-biphenyl]-2-sulfonamide] | 1 | 12 | –
2 | Nc1cnc(-c2ccc(-c3ccccc3S(=O)(=O)NC[C@H](O)c3ccccc3)cc2F)cn1 [Example 117, (R)-4′-(5-Aminopyrazin-2-yl)-3′-fluoro-N-(2-hydroxy-2-phenylethyl)-[1,1′-biphenyl]-2-sulfonamide] | 1 | 7 | –
3 | Nc1cnc(-c2ccc(-c3ccccc3S(=O)(=O)N3CC(O)C3)cc2F)cn1 [Example 119, 1-{[4′-(5-Aminopyrazin-2-yl)-3′-fluorobiphenyl-2-yl]sulfonyl}azetidin-3-ol] | 3 | 22 | –
4 | Nc1cnc(-c2ccc(-c3ccccc3S(=O)(=O)NC3CCNCC3)cc2F)cn1 [Example 123, 4′-(5-Aminopyrazin-2-yl)-3′-fluoro-N-piperidin-4-ylbiphenyl-2-sulfonamide] | 83 | 1120 | –
5 | NCC1CN(S(=O)(=O)c2ccccc2-c2ccc(-c3cnc(N)cn3)c(F)c2)C1 [Example 124, 5-(2′-{[3-(Aminomethyl)azetidin-1-yl]sulfonyl}-3-fluorobiphenyl-4-yl)pyrazin-2-amine] | 35 | 217 | –
6 | Nc1cnc(-c2ccc(-c3ccccc3S(=O)(=O)NCC3CNC3)cc2F)cn1 [Example 125, 4′-(5-Aminopyrazin-2-yl)-N-(azetidin-3-ylmethyl)-3′-fluorobiphenyl-2-sulfonamide] | 50 | > 10000 | –
7 | Nc1cnc(-c2ccc(-c3ccccc3S(=O)(=O)N3CCc4[nH]ncc4C3)cc2F)cn1 [Example 128, 5-[3-Fluoro-2′-(1,4,6,7-tetrahydro-5H-pyrazolo[4,3-c]pyridin-5-ylsulfonyl)biphenyl-4-yl]pyrazin-2-amine] | 1 | 38 | –
8 | Nc1cnc(-c2ccc(-c3ccccc3S(=O)(=O)N3CCC(n4cn[nH]c4=O)CC3)cc2F)cn1 [Example 129, 4-(1-{[4′-(5-Aminopyrazin-2-yl)-3′-fluorobiphenyl-2-yl]sulfonyl}piperidin-4-yl)-2,4-dihydro-3H-1,2,4-triazol-3-one] | 4 | 534 | –
9 | Nc1cnc(-c2ccc(-c3ccccc3S(=O)(=O)N3C[C@H]4C[C@@H]3CN4)cc2F)cn1 [Example 130, 5-(2′-((1R,4R)-2,5-Diazabicyclo[2.2.1]heptan-2-ylsulfonyl)-3-fluoro-[1,1′-biphenyl]-4-yl)pyrazin-2-amine] | 129 | 633 | –
10 | Nc1cnc(-c2ccc(-c3ccccc3S(=O)(=O)N3C[C@@H]4C[C@H]3CN4)cc2F)cn1 [Example 131, 5-(2′-((1S,4S)-2,5-Diazabicyclo[2.2.1]heptan-2-ylsulfonyl)-3-fluoro-[1,1′-biphenyl]-4-yl)pyrazin-2-amine] | 144 | 695 | –
11 | Nc1cnc(-c2ccc(-c3ccccc3S(=O)(=O)N3CCC[C@H](N)C3)cc2F)cn1 [Example 137, (S)-5-{2′-[(3-Aminopiperidin-1-yl)sulfonyl]-3-fluorobiphenyl-4-yl}pyrazin-2-amine] | 3 | 44 | –
12 | Nc1cnc(-c2ccc(-c3ccccc3S(=O)(=O)N(CCO)CCO)cc2F)cn1 [Example 138, 4′-(5-Aminopyrazin-2-yl)-3′-fluoro-N,N-bis(2-hydroxyethyl)biphenyl-2-sulfonamide] | 11 | 174 | –
13 | Nc1cnc(-c2ccc(-c3ccccc3S(=O)(=O)N(C3CCOCC3)C3CC3)cc2F)cn1 [Example 140, 4′-(5-Aminopyrazin-2-yl)-N-cyclopropyl-3′-fluoro-N-(tetrahydro-2H-pyran-4-yl)biphenyl-2-sulfonamide] | 1 | 11 | –
14 | Nc1cnc(-c2ccc(-c3ccccc3S(=O)(=O)N3C[C@@H]4C(N)[C@@H]4C3)cc2F)cn1 (stereo partly drawn) [Example 143, endo-3-((4′-(5-Aminopyrazin-2-yl)-3′-fluoro-[1,1′-biphenyl]-2-yl)sulfonyl)-3-azabicyclo[3.1.0]hexan-6-amine] | 8 | 49 | –
15 | C[C@H]1CNCCN1S(=O)(=O)c1ccccc1-c1ccc(-c2cnc(N)cn2)c(F)c1 [Example 144, (S)-5-(3-Fluoro-2′-((2-methylpiperazin-1-yl)sulfonyl)-[1,1′-biphenyl]-4-yl)pyrazin-2-amine] | 15 | 97 | –
16 | C[C@@H]1CNCCN1S(=O)(=O)c1ccccc1-c1ccc(-c2cnc(N)cn2)c(F)c1 [Example 145, (R)-5-(3-Fluoro-2′-((2-methylpiperazin-1-yl)sulfonyl)-[1,1′-biphenyl]-4-yl)pyrazin-2-amine] | 17 | 21 | –
17 | Nc1cnc(-c2ccc(-c3ccccc3S(=O)(=O)N3CCNC[C@@H]3CO)cc2F)cn1 [Example 146, (R)-(1-((4′-(5-Aminopyrazin-2-yl)-3′-fluoro-[1,1′-biphenyl]-2-yl)sulfonyl)piperazin-2-yl)methanol] | 19 | 168 | –
18 | CC(C)(C)[C@@H](CO)NS(=O)(=O)c1ccccc1-c1ccc(-c2cnc(N)cn2)c(F)c1 [Example 149, (S)-4′-(5-Aminopyrazin-2-yl)-3′-fluoro-N-(1-hydroxy-3,3-dimethylbutan-2-yl)-[1,1′-biphenyl]-2-sulfonamide] | 5 | 82 | –
19 | CC(C)(C)[C@H](CO)NS(=O)(=O)c1ccccc1-c1ccc(-c2cnc(N)cn2)c(F)c1 [Example 150, (R)-4′-(5-Aminopyrazin-2-yl)-3′-fluoro-N-(1-hydroxy-3,3-dimethylbutan-2-yl)-[1,1′-biphenyl]-2-sulfonamide] | 1 | 11 | –
20 | CC(C)(C)OC(=O)NCCNS(=O)(=O)c1ccccc1-c1ccc(-c2cnc(N)cn2)c(F)c1 [Example 151, tert-Butyl [2-({[4′-(5-aminopyrazin-2-yl)-3′-fluorobiphenyl-2-yl]sulfonyl}amino)ethyl]carbamate] | 1 | 114 | –
21 | NCCNS(=O)(=O)c1ccccc1-c1ccc(-c2cnc(N)cn2)c(F)c1 [Example 152, N-(2-Aminoethyl)-4′-(5-aminopyrazin-2-yl)-3′-fluorobiphenyl-2-sulfonamide] | 81 | 537 | –
22 | CC[C@@H](CO)NS(=O)(=O)c1ccccc1-c1ccc(-c2cnc(N)cn2)c(F)c1 [Example 153, (S)-4′-(5-Aminopyrazin-2-yl)-3′-fluoro-N-(1-hydroxybutan-2-yl)-[1,1′-biphenyl]-2-sulfonamide] | 3 | 7 | –

Now from value to compound:

Row | Ki (human FLAP) [nM] | IC50 ([1]; Homo sapiens) [nM] | IC50 [1] [nM] | Compound
23 | 2 | – | 35 | C[C@@H](NS(=O)(=O)c1ccccc1-c1ccc(-c2cnc(N)cn2)c(F)c1)C(F)(F)F [Example 127, (R)-4′-(5-Aminopyrazin-2-yl)-3′-fluoro-N-(2,2,2-trifluoro-1-methylethyl)biphenyl-2-sulfonamide]
24 | 2 | 11 | – | Nc1cnc(-c2ccc(-c3ccccc3S(=O)(=O)NCCCCCO)cc2F)cn1 [Example 132, 4′-(5-Aminopyrazin-2-yl)-3′-fluoro-N-(5-hydroxypentyl)biphenyl-2-sulfonamide]
25 | 1 | 32 | – | Nc1cnc(-c2ccc(-c3ccccc3S(=O)(=O)NCCCCCCO)cc2F)cn1 [Example 133, 4′-(5-Aminopyrazin-2-yl)-3′-fluoro-N-(6-hydroxyhexyl)biphenyl-2-sulfonamide]
26 | 1 | > 1000 | – | Nc1cnc(-c2ccc(-c3ccccc3S(=O)(=O)N[C@H]3CC[C@@H](N)CC3)cc2F)cn1 [Example 134, cis-N-(4-Aminocyclohexyl)-4′-(5-aminopyrazin-2-yl)-3′-fluorobiphenyl-2-sulfonamide]
27 | 1 | 15 | – | Nc1cnc(-c2ccc(-c3ccccc3S(=O)(=O)N(CCO)C3CCCCC3)cc2F)cn1 [Example 136, 4′-(5-Aminopyrazin-2-yl)-N-cyclohexyl-3′-fluoro-N-(2-hydroxyethyl)biphenyl-2-sulfonamide]
28 | 1 | 3 | – | CC(C)N(CCO)S(=O)(=O)c1ccccc1-c1ccc(-c2cnc(N)cn2)c(F)c1 [Example 141, 4′-(5-Aminopyrazin-2-yl)-3′-fluoro-N-(2-hydroxyethyl)-N-(1-methylethyl)biphenyl-2-sulfonamide]
29 | 1 | 102 | – | CC(CO)(CO)NS(=O)(=O)c1ccccc1-c1ccc(-c2cnc(N)cn2)c(F)c1 [Example 147, 4′-(5-Aminopyrazin-2-yl)-3′-fluoro-N-[2-hydroxy-1-(hydroxymethyl)-1-methylethyl]biphenyl-2-sulfonamide]
30 | 2 | 8 | – | CC(C)[C@@H](CO)NS(=O)(=O)c1ccccc1-c1ccc(-c2cnc(N)cn2)c(F)c1 [Example 148, (S)-4′-(5-Aminopyrazin-2-yl)-3′-fluoro-N-(1-hydroxy-3-methylbutan-2-yl)-[1,1′-biphenyl]-2-sulfonamide]
31 | 29 | 1040 | – | Nc1cnc(-c2ccc(-c3ccccc3S(=O)(=O)N[C@H]3CCNC3)cc2F)cn1 [Example 154, (S)-4′-(5-Aminopyrazin-2-yl)-3′-fluoro-N-(pyrrolidin-3-yl)-[1,1′-biphenyl]-2-sulfonamide]
32 | 12 | 103 | – | CC(=O)NCCNS(=O)(=O)c1ccccc1-c1ccc(-c2cnc(N)cn2)c(F)c1 [Example 155, N-[2-({[4′-(5-Aminopyrazin-2-yl)-3′-fluorobiphenyl-2-yl]sulfonyl}amino)ethyl]acetamide]
